Values of other authors, collected in US6486152B1, “Topical carbamazepine formulations and methods of use” (Taro Pharmaceutical Industries Ltd., priority 1997, dated 2002).

What was measured:
psoriatic erythroderma = details: HIV positive patient

mood (psoriatic erythroderma; systemic (ingested) carbamazepine): affected
solubility in acetone (acetone): soluble
solubility in alcohols (alcohols): soluble
solubility in propylene glycol (propylene glycol): soluble
solubility in water (water): practically insoluble
SMILES: NC(=O)N1c2ccccc2C=Cc2ccccc21 [Carbamazepine, 5-carbamoyl-5H-dibenz[b,f]azepine]
psoriatic erythroderma condition during first intake (psoriatic erythroderma; accidentally ingested 200-400 mg/day for two weeks): exhibited improvement
psoriatic erythroderma condition after stopping the medication (psoriatic erythroderma; after they stopped taking the medication): flared up again
psoriatic erythroderma condition on second intake (psoriatic erythroderma; intentionally took the medication a second time): improved once again
